Test results: a melting point compilation (Tetko et al.; mined from patent text by program, amines drawn as free bases though some values may be those of a salt)

melting point | SMILES
136 to 137 °C | COC(=O)CCCc1nnc(-c2nccs2)c2cc(OC)ccc12
233 °C | COc1cc(C)ccc1S(=O)(=O)NC(=O)C(c1cc(OC)c2c(c1)OCO2)c1cn(C)c2cc(C=O)ccc12 (configuration not stated)
42 to 54 °C | CC1=C(c2ccccc2)C(=O)N(C(C)(C)C(O)C(C)C)CO1 (configuration not stated)
198 to 200 °C | Cc1ccc(S(=O)(=O)Oc2c(-c3ccc(S(C)(=O)=O)cc3)cnn(-c3cccc(Cl)c3)c2=O)cc1
178 to 180 °C | O=C1c2ccccc2C(=O)N1OS(=O)(=O)c1ccc(Cl)cc1
157 to 158 °C | Cc1oc(-c2ccccc2)nc1CCOc1ccc(CCCCCC2OC(=O)NC2=O)cc1 (configuration not stated)
192 °C | CC1=C(C(=O)OC(C)(C)C)C(c2ccc(Cl)cc2)C(C(=O)OC(C)(C)C)=C(C)N1
118 to 119 °C | CCCCc1ncc(C=C2C(=O)N(CC(=O)OCC)c3ccccc32)n1Cc1ccc(C(=O)OC)cc1
65 to 67 °C | Cc1ccc(S(=O)(=O)OCCC2(O)CCc3cc(F)ccc3C2C(C)C)cc1 (configuration not stated)
239 to 241 °C | Cc1cc(-c2nncc3c(Br)c(OCc4ncnn4C)nn23)no1
77.7 to 79.4 °C | COCCCCCCCCCCCC(=O)NCc1ccccc1
199 to 200 °C | C=CCOc1ncnc2nc[nH]c12
56.1 to 57.9 °C | C=CC(=O)OCCCCCCCCOc1ccc(-c2ccc(OCCCCCCCCOC(=O)C=C)c(F)c2)cc1F
175 to 178 °C | CC(C(=O)NC(C)(C)C)c1cc(Cl)ccc1C(=O)O (configuration not stated)
178 to 180 °C | C[Si](C)(c1ccccc1)C1CC(=O)c2c(nc3ccccc3c2N)C1 (configuration not stated)
205 to 206 °C | CCN(CCOc1cccc2ccccc12)c1ccc(C(=O)O)cc1
87 to 88 °C | CC(C)c1nn(-c2ccc(C(F)(F)F)cn2)cc1CCCO
248 to 254 °C | Nc1nc2c(sc(=O)n2CC(O)CO)c(=O)[nH]1 (configuration not stated)
153 to 154 °C | CN(C)C(=O)CC1CN=C(c2cc3cccc(N(C)S(=O)(=O)c4cccs4)c3[nH]2)S1 (configuration not stated)
173 °C | COc1ccc(Cn2c(=O)oc(=O)c3cc(Cl)cnc32)cc1
219 to 221 °C | O=C(c1ccc(-c2cccc(C(F)(F)F)c2)o1)N1Cc2c([nH]c3ccccc3c2=O)C1c1ccc2c(c1)OCO2 (configuration not stated)
130 to 132 °C | CC(N)CC(=O)Nc1ccc(Nc2ccccc2)cc1 (configuration not stated)

melting point | SMILES
123 to 126 °C | CC(C)(S)CN(Cc1ccccc1)C(=O)CCC(=O)O
259 to 262 °C | CC(C)(C)c1ccc(-c2c(-c3ccncc3)sc3nc(=O)cc(N)n23)cc1
157 to 158 °C | Cc1nc(C)c(Cl)c(NCc2nccc(OCCCCN3CCN(Cc4ccncc4)CC3)c2C)n1
107 to 108 °C | CCCCCc1ncc(C(=O)OCC)c(NCc2ccc(-c3ccccc3-c3nnnn3C(c3ccccc3)(c3ccccc3)c3ccccc3)cc2)n1
257 to 258 °C | CC(C)(C)c1ccc(N2CCCN(c3cc[nH]c(=S)c3C#N)CC2)cc1
180 °C | Fc1nc(Cl)c2cc[nH]c2n1
146 to 148 °C | CC(O)(CF)C(=O)Nc1ccc(C(=O)c2ccccc2)cc1 (configuration not stated)
128 to 130 °C | CC(C#N)(COc1cc(F)c(F)cc1-c1ccsc1)NC(=O)c1ccc(OC(F)(F)F)cc1 (configuration not stated)
153 to 154 °C | Cn1cc(Br)cc(Nc2ccccn2)c1=O
191 to 193 °C | COc1cc2c(cc1O)CCC1C2CCC2(C)C(O)C=CC12 (configuration not stated)
111 to 113 °C | Cc1c(NC(=O)c2ccc(OC[C@@H]3CCCO3)cc2)ccc2cc(CNCCOC(C)C)cnc12
165 to 168 °C | O=S(CCCCCOc1ccc(C2=C(c3ccc(O)cc3)CCCc3cc(O)ccc32)cc1)CCCC(F)(F)C(F)(F)F (configuration not stated)
221 to 225 °C | O=C1OCCn2c1cc(=O)c(O)c2C(O)c1ccc(F)cc1 (configuration not stated)
70 to 72 °C | CCO[C@@H]1[C@@H](OC)[C@H](C)O[C@@H](OC(=O)N(C(C)=O)c2ccc(-c3ncn(-c4ccc(OC(F)(F)C(F)(F)F)cc4)n3)cc2)[C@@H]1OC
195 to 197 °C | Cn1cc(C(F)(F)F)nc1-c1ccc(OCC(O)CNCCOc2ccc(O)c(C(N)=O)c2)cc1 (configuration not stated)
251 to 253 °C | N#Cc1cccn1-c1cc(C(=O)N=C(N)N)cc(C(=O)N=C(N)N)c1
140 to 142 °C | CN(C)S(=O)(=O)c1ccc(N)cc1C(F)(F)F
238 to 240 °C | CS(=O)(=O)c1ccc(Nc2cc(N3CCOCC3)nc(-c3ccccc3)n2)cc1
182 to 184 °C | FC(F)(F)c1ccc(CN2CC3(COc4cc5c(cc43)CCO5)c3c(Br)cccc32)o1 (configuration not stated)
191 °C | Cc1cc(=O)c(Oc2ccc(F)cc2F)c(-c2ccc(S(C)(=O)=O)cc2)o1
122 to 127 °C | CN(C)Cc1ccc(CSCCNC2=NS(=O)(=O)N=C2N2CCOCC2)o1
180 to 190 °C | COc1ccc(-n2c(N)cc(=O)nc2Nc2ccccc2)cc1

melting point | SMILES
226 to 227 °C | N#CCCNC(=O)c1n[nH]cc1NC(=O)c1cccs1
142 to 144 °C | CCCn1c(SC)nc2ccsc2c1=O
113 to 115 °C | CCc1nc(/C=C/c2cn(-c3ccccc3)nc2OCc2ccc(OCc3nc(-c4cccc(NS(C)(=O)=O)c4)oc3C)c(OC)c2)cs1
142 to 143 °C | CCC(CC)N(C)c1cc(C(=O)OC)ccc1N1C(=O)CCC1(CO)CO
99 to 101 °C | C/C(=N\O)C(=O)c1ccc(F)cc1F
176 to 178 °C | COc1ccc(C2(C#N)CCC(NS(C)(=O)=O)CC2)c2c1oc1ccccc12 (configuration not stated)
118 to 119 °C | CCOc1c(CN2CCCCC2)c2c(c3c1OC(C)(C)C3)C(c1cccc(N(S(C)(=O)=O)S(C)(=O)=O)c1)=NC(C)(C)C2
104 to 106 °C | COc1ccc2[nH]c(S(=O)Cc3cc(N(C)C)ncn3)nc2c1 (configuration not stated)
106 to 108 °C | CC(C)(C)[Si](C)(C)Oc1ccccc1-c1cc(-c2cccc([N+](=O)[O-])c2)c(C#N)c(NC(=O)c2cccs2)n1
144 to 147 °C | Nc1nc(-c2cc(Cl)ccc2Cl)nc(N2CCC[C@H]2C(=O)O)n1
63 to 65 °C | CCCCCCCCCCCCn1nnc(C(C)(C)S(=O)(=O)Nc2c(C(C)C)cccc2C(C)C)n1
154 to 157 °C | CN(C)CC#Cc1cc(CN2CCOCC2)cc2c(=O)c(C(=O)NCc3ccc(Cl)cc3)cn(C)c12
254 to 255 °C | Cc1nnc2cc(-c3ccccc3)c3cc(Cl)ccc3n12
> 300 °C | O=C(O)c1ccc(-c2ncc(-c3ccc(Cl)cc3)s2)cc1
182 to 185 °C | CCOC(=O)c1ncn(-c2nncs2)c1S
74 to 76.5 °C | NCC(O)COc1cccc(CN2CCCCC2)c1 (configuration not stated)
86 to 88 °C | COc1cc(CBr)ccc1OC(=O)c1ccccc1
132 to 135 °C | CC(=O)NCCn1ccc2ncnc(Nc3ccc(Oc4cccc5sncc45)c(Br)c3)c21
200 to 201 °C | COc1cccc([C@H]2O[C@H](CC(=O)Nc3ccc4[nH]c(C(=O)O)cc4c3)C(=O)N(CC(C)(C)CO)c3ccc(Cl)cc32)c1OC
122 to 125 °C | COc1ccccc1N1CCN(CC(O)COc2ccc3cc(C(C)=O)oc3c2)CC1 (configuration not stated)
61 to 62 °C | CCOC(=O)CCCC(=O)c1ccc(Oc2ccccc2)cc1

SMILES | melting point
CC1=NC(c2ccccc2)c2c(cc[nH]c2=O)N1 (configuration not stated) | 263 to 264 °C
CCN(c1nc(NCCO)nc(N(CC)C2CC(C)(C)NC(C)(C)C2)n1)C1CC(C)(C)NC(C)(C)C1 | 184 to 185 °C
